According to patent US20050197350A1, “Novel quinoline, tetrahydroquinazoline, and pyrimidine derivatives and methods of treatment related to the use thereof” (TAISHO PHARMACEUTICAL CO., LTD., priority 2003, published 2005):

These molecules were tested on MCH receptors (assay: MCH receptor activity class (method not given)). Settings: class 1-3 by percent of control at 10^-7 M or IC50.
For CCOc1ccc2ccccc2c1C(=O)N[C@H]1CC[C@@H](Nc2nc3c(c(N(C)C)n2)CCCC3)CC1 [compound 565], the class was 3 (Class 3 The value of percent of control at 10^−7 M was more than 60% or the value of IC50 was more than 200 nM.). For CN(C)c1nc(N[C@H]2CC[C@@H](NC(=O)c3c(F)c(F)c(F)c(F)c3F)CC2)nc2c1CCCC2 [compound 566], the class was 3 (Class 3 The value of percent of control at 10^−7 M was more than 60% or the value of IC50 was more than 200 nM.). CN(C)c1nc(N[C@H]2CC[C@@H](NC(=O)c3ccc(SC(F)(F)F)cc3)CC2)nc2c1CCCC2 [compound 567] was tested, and the class was 3 (Class 3 The value of percent of control at 10^−7 M was more than 60% or the value of IC50 was more than 200 nM.). In the case of CN(C)c1nc(N[C@H]2CC[C@@H](NC(=O)c3sc(Cl)c(Cl)c3Cl)CC2)nc2c1CCCC2 [compound 568], the class is reported as 3 (Class 3 The value of percent of control at 10^−7 M was more than 60% or the value of IC50 was more than 200 nM.). CN(C)c1nc(N[C@H]2CC[C@@H](NC(=O)COc3cccc(Cl)c3)CC2)nc2c1CCCC2 [compound 569] was tested, and the class was 1 (Class 1: The value of percent of control at 10^−7 M was less than 40% or the value of IC50 was less than 50 nM.). Cc1onc(-c2c(Cl)cccc2Cl)c1C(=O)N[C@H]1CC[C@@H](Nc2nc3c(c(N(C)C)n2)CCCC3)CC1 [compound 570] was tested, and the class was 1 (Class 1: The value of percent of control at 10^−7 M was less than 40% or the value of IC50 was less than 50 nM.). CN(C)c1nc(N[C@H]2CC[C@@H](NC(=O)c3cccnc3Oc3ccccc3)CC2)nc2c1CCCC2 [compound 571] was tested, and the class was 2 (Class 2: The value of percent of control at 10^−7 M was from 40% to 60% or the value of IC′50 was from 50 nM to 200 nM.). With CN(C)c1nc(N[C@H]2CC[C@@H](NC(=O)c3cccnc3Sc3ccccc3)CC2)nc2c1CCCC2 [compound 572] the class was 3 (Class 3 The value of percent of control at 10^−7 M was more than 60% or the value of IC50 was more than 200 nM.). In the case of Cc1ccc(Oc2ncccc2C(=O)N[C@H]2CC[C@@H](Nc3nc4c(c(N(C)C)n3)CCCC4)CC2)cc1 [compound 573], the class is reported as 1 (Class 1: The value of percent of control at 10^−7 M was less than 40% or the value of IC50 was less than 50 nM.). CCCN(CCC)S(=O)(=O)c1ccc(C(=O)N[C@H]2CC[C@@H](Nc3nc4c(c(N(C)C)n3)CCCC4)CC2)cc1 [compound 574] was tested, and the class was 3 (Class 3 The value of percent of control at 10^−7 M was more than 60% or the value of IC50 was more than 200 nM.). With CN(C)c1nc(N[C@H]2CC[C@@H](NC(=O)C(C)(C)Oc3ccc(Cl)cc3)CC2)nc2c1CCCC2 [compound 575] the class was 3 (Class 3 The value of percent of control at 10^−7 M was more than 60% or the value of IC50 was more than 200 nM.). In the case of CN(C)c1nc(N[C@H]2CC[C@@H](NC(=O)c3cc(-c4ccc(Cl)cc4)oc3C(F)(F)F)CC2)nc2c1CCCC2 [compound 576], the class is reported as 3 (Class 3 The value of percent of control at 10^−7 M was more than 60% or the value of IC50 was more than 200 nM.). With CN(C)c1nc(N[C@H]2CC[C@@H](NC(=O)c3cc(C(C)(C)C)nn3Cc3ccc(Cl)cc3Cl)CC2)nc2c1CCCC2 [compound 577] the class was 3 (Class 3 The value of percent of control at 10^−7 M was more than 60% or the value of IC50 was more than 200 nM.). For CN(C)c1nc(N[C@H]2CC[C@@H](NC(=O)C3=Cc4cc(Cl)ccc4OC3)CC2)nc2c1CCCC2 [compound 578], the class was 3 (Class 3 The value of percent of control at 10^−7 M was more than 60% or the value of IC50 was more than 200 nM.). CN(C)c1nc(N[C@H]2CC[C@@H](NC(=O)c3ccc(OC(F)(F)F)c(Cl)c3)CC2)nc2c1CCCC2 [compound 579] was tested, and the class was 3 (Class 3 The value of percent of control at 10^−7 M was more than 60% or the value of IC50 was more than 200 nM.). Cc1cc(=O)oc2c(OCC(=O)N[C@H]3CC[C@@H](Nc4nc5c(c(N(C)C)n4)CCCC5)CC3)cccc12 [compound 580] was tested, and the class was 3 (Class 3 The value of percent of control at 10^−7 M was more than 60% or the value of IC50 was more than 200 nM.).
